The subject of one assay is ZR75-vector. Put plainly: Orthotopic nude mouse model, ZR75-vector. The assay is classed as in vivo, nude mice. To be noted: mammary fat pad, daily subcutaneous injection in peanut oil. As to the method:
(§1) Orthotopic mouse model—The cell lines mixed with Matrigel (BD Biosciences) at the ratio of 1:1 were inoculated into the abdominal mammary fat pad of the 5 to 6 week old female nude mice. When the tumor were palpable, the mice were randomized into treatment and control groups where treatment groups received daily subcutaneous injection of tamoxifen (Sigma) dissolved in peanut oil (Sigma) and the control groups received subcutaneous injection of the solvent only. Tumor sizes were measured by caliper and tumor volume was calculated as (length*width*width)/2. Tumor growth rate was expressed as the % of tumor volume change calculated as the tumor volume measured at the indicated time point normalized against the tumor volume at day 0*100%. This protocol has been reviewed and approved by Committee on the Use of Live Animals in Teaching and Research (CULATR), the University of Hong Kong (CULATR No.: 3259-14)
(§2) We further validated the effect of BQ323636.1 overexpression in conferring tamoxifen resistance using a nude mouse model. […] Tumor sizes were measured by caliper and tumor volume was calculated as (length*width*width)/2. Tumor growth rate was expressed as the % of tumor volume change calculated as the tumor volume measured at the indicated time point normalized against the tumor volume at day 0*100%. […]

In a further assay the test system is MCF7-BQ323636.1. In words: Orthotopic nude mouse model, MCF7-BQ323636.1. The settings on record: MCF7-BQ323636.1, mammary fat pad, daily subcutaneous injection in peanut oil. Type of assay: in vivo, nude mice. As for the experimental part:
as §1, §2

For the next assay, the system named is ZR75-BQ323636.1. In words: Orthotopic nude mouse model, ZR75-BQ323636.1. The assay is classed as in vivo, nude mice. To be noted: ZR75-BQ323636.1, mammary fat pad, daily subcutaneous injection in peanut oil. As to the method: as §1, §2
A further assay deals with MCF7-vector. In words: Orthotopic nude mouse model, MCF7-vector. The settings on record: mammary fat pad, daily subcutaneous injection in peanut oil. The assay is classed as in vivo, nude mice. As to the method: as §1, §2
In assay [1] the test system is ZR75-BQ323636.1 and MCF7-BQ323636.1. Put plainly: MTT assay, tamoxifen response of BQ323636.1 overexpressing cell lines. To be noted: BQ323636.1 overexpression versus empty vector cell lines. Type of assay: cell-based, Human. As for the experimental part:
Cell lines—Human breast cancer cell lines MCF7 and ZR-75-1 were purchased from American Type Culture Collection and were re-authenticated by short tandem repeat profiling (Zhang, Gong et al. 2013). MCF7 was cultured in Dulbecco's Modified Eagle's Medium supplemented with 10% FBS and 1% penicillin/streptomycin and ZR-75-1 was cultured in Improved Minimum Essential Medium (IMEM) supplemented with 5% FBS and 1% penicillin/streptomycin. LCC2 and AK-47 are the two tamoxifen resistant cell lines derived from MCF7 and ZR-75-1, respectively and were kindly provided by Dr. Robert Clarke (Georgetown University Medical School, Washington, D.C.) (Wong, Dai et al. 2006) and have been used in our previous study (Zhang, Gong et al. 2013). LCC2 and AK-47 were both cultured in IMEM supplemented with 5% charcoal-stripped FBS and 1% penicillin/streptomycin. All the cell lines used in this study have been passaged and kept fewer than 6 months after the re-authentication or thawing. […]
MTT assay—Cells were seeded at a density of 6×10^3 cells/well. […] Extinction of the samples was measured by the Infinite 200 microtiter plate reader (Tecan) at 570 nm with a reference wavelength at 750 nm. Background MTT readings were subtracted from the samples. […]

Each structure is given as a SMILES string.

Regarding `CC/C(=C(\c1ccccc1)c1ccc(OCCN(C)C)cc1)c1ccccc1` [tamoxifen], the “tumor growth versus solvent control group” value in the assay on ZR75-vector is reported as “significantly reduced tumor growth”; in the assay on MCF7-BQ323636.1, “no change of tumor growth”; with ZR75-BQ323636.1, “no change of tumor growth”; in the assay with MCF7-vector it was “significantly reduced tumor growth”. In addition, in assay [1], the “tamoxifen resistance in MTT assay” value is given as “induced the tamoxifen resistance”.
